# Test results from the supplement of paper PMC10307832.
# Experiments:
# Test in all cases: relative viability (nuclei count vs DMSO), 5 days (fraction); higher = more cells survive
# NCI-H2347 = system: NCI-H2347
# In short: (§1)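 Lung cancer cell lines, seeded in 1536-well plates, were treated the following day by pin tool with a single drug or with five library-drug doses (not always all listed) in √10 steps on top of a fixed anchor-drug dose. Cells were fixed and nuclei stained in one step after 5 days, and nuclei were counted. Relative viability is the nuclei count for treated wells divided by that for vehicle wells, reported as medians of duplicate plates.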
# NCI-H1915 = system: NCI-H1915
# In short: as §1
# RERF-LC-KJ = system: RERF-LC-KJ
# In short: as §1
# LXF-289 = system: LXF-289
# In short: as §1
# NCI-H1755 = system: NCI-H1755
# In short: as §1
# SW 1573 = system: SW 1573
# In short: as §1
# LC-2-ad = system: LC-2-ad
# In short: as §1
# NCI-H1975 = system: NCI-H1975
# In short: as §1
# HOP-62 = system: HOP-62
# In short: as §1
# NCI-H2228 = system: NCI-H2228
# In short: as §1
# SK-LU-1 = system: SK-LU-1
# In short: as §1
# HCC-15 = system: HCC-15
# In short: as §1
# A-427 = system: A-427
# In short: as §1
# HCC-78 = system: HCC-78
# In short: as §1
# NCI-H522 = system: NCI-H522
# In short: as §1
# NCI-H2342 = system: NCI-H2342
# In short: as §1
# NCI-H1734 = system: NCI-H1734
# In short: as §1
# NCI-H647 = system: NCI-H647
# In short: as §1
# NCI-H358 = system: NCI-H358
# In short: as §1
# PC-3 [JPC-3] = system: PC-3 [JPC-3]
# In short: as §1
# NCI-H2126 = system: NCI-H2126
# In short: as §1
smiles,measurement,setting,value
O=c1cc(-c2cccc3c2Sc2ccccc2S3)oc(N2CCOCC2)c1 + Cc1cc(Nc2cc(N3CCN(C)CC3)nc(Sc3ccc(NC(=O)C4CC4)cc3)n2)n[nH]1 [Tozasertib] (partner 0.1 µM),relative viability,NCI-H2347; first compound 0.08 µM,0.668
same,relative viability,NCI-H2347; first compound 0.253 µM,0.605
same,relative viability,NCI-H2347; first compound 0.8 µM,0.351
same,relative viability,NCI-H2347; first compound 2.53 µM,0.53
same,relative viability,NCI-H2347; first compound 8 µM,0.404
same,relative viability,NCI-H1915; first compound 0.08 µM,0.495
same,relative viability,NCI-H1915; first compound 0.253 µM,0.446
same,relative viability,NCI-H1915; first compound 0.8 µM,0.428
same,relative viability,NCI-H1915; first compound 2.53 µM,0.401
same,relative viability,NCI-H1915; first compound 8 µM,0.332
same,relative viability,RERF-LC-KJ; first compound 0.08 µM,0.417
same,relative viability,RERF-LC-KJ; first compound 0.253 µM,0.478
same,relative viability,RERF-LC-KJ; first compound 0.8 µM,0.539
same,relative viability,RERF-LC-KJ; first compound 2.53 µM,0.411
same,relative viability,RERF-LC-KJ; first compound 8 µM,0.389
same,relative viability,LXF-289; first compound 0.08 µM,0.186
same,relative viability,LXF-289; first compound 0.253 µM,0.164
same,relative viability,LXF-289; first compound 0.8 µM,0.223
same,relative viability,LXF-289; first compound 2.53 µM,0.15
same,relative viability,LXF-289; first compound 8 µM,0.17
same,relative viability,NCI-H1755; first compound 0.08 µM,0.609
same,relative viability,NCI-H1755; first compound 0.253 µM,0.582
same,relative viability,NCI-H1755; first compound 0.8 µM,0.592
same,relative viability,NCI-H1755; first compound 2.53 µM,0.64
same,relative viability,NCI-H1755; first compound 8 µM,0.567
same,relative viability,SW 1573; first compound 0.08 µM,0.175
same,relative viability,SW 1573; first compound 0.253 µM,0.186
same,relative viability,SW 1573; first compound 0.8 µM,0.197
same,relative viability,SW 1573; first compound 2.53 µM,0.175
same,relative viability,SW 1573; first compound 8 µM,0.125
same,relative viability,LC-2-ad; first compound 0.08 µM,0.389
same,relative viability,LC-2-ad; first compound 0.253 µM,0.405
same,relative viability,LC-2-ad; first compound 0.8 µM,0.484
same,relative viability,LC-2-ad; first compound 2.53 µM,0.411
same,relative viability,LC-2-ad; first compound 8 µM,0.435
same,relative viability,NCI-H1975; first compound 0.08 µM,0.867
same,relative viability,NCI-H1975; first compound 0.253 µM,0.803
same,relative viability,NCI-H1975; first compound 0.8 µM,0.653
same,relative viability,NCI-H1975; first compound 2.53 µM,0.341
same,relative viability,NCI-H1975; first compound 8 µM,0.299
same,relative viability,HOP-62; first compound 0.08 µM,0.452
same,relative viability,HOP-62; first compound 0.253 µM,0.362
same,relative viability,HOP-62; first compound 0.8 µM,0.426
same,relative viability,HOP-62; first compound 2.53 µM,0.324
same,relative viability,HOP-62; first compound 8 µM,0.397
same,relative viability,NCI-H2228; first compound 0.08 µM,0.213
same,relative viability,NCI-H2228; first compound 0.253 µM,0.186
same,relative viability,NCI-H2228; first compound 0.8 µM,0.248
same,relative viability,NCI-H2228; first compound 2.53 µM,0.163
same,relative viability,NCI-H2228; first compound 8 µM,0.18
same,relative viability,SK-LU-1; first compound 0.08 µM,0.309
same,relative viability,SK-LU-1; first compound 0.253 µM,0.312
same,relative viability,SK-LU-1; first compound 0.8 µM,0.313
same,relative viability,SK-LU-1; first compound 2.53 µM,0.269
same,relative viability,SK-LU-1; first compound 8 µM,0.322
same,relative viability,HCC-15; first compound 0.08 µM,0.437
same,relative viability,HCC-15; first compound 0.253 µM,0.428
same,relative viability,HCC-15; first compound 0.8 µM,0.504
same,relative viability,HCC-15; first compound 2.53 µM,0.39
same,relative viability,HCC-15; first compound 8 µM,0.307
same,relative viability,A-427; first compound 0.08 µM,0.176
same,relative viability,A-427; first compound 0.253 µM,0.179
same,relative viability,A-427; first compound 0.8 µM,0.196
same,relative viability,A-427; first compound 8 µM,0.204
same,relative viability,HCC-78; first compound 0.08 µM,0.295
same,relative viability,HCC-78; first compound 0.253 µM,0.457
same,relative viability,HCC-78; first compound 0.8 µM,0.511
same,relative viability,HCC-78; first compound 2.53 µM,0.384
same,relative viability,HCC-78; first compound 8 µM,0.334
same,relative viability,NCI-H522; first compound 0.08 µM,0.632
same,relative viability,NCI-H522; first compound 0.253 µM,0.544
same,relative viability,NCI-H522; first compound 0.8 µM,0.512
same,relative viability,NCI-H522; first compound 2.53 µM,0.651
same,relative viability,NCI-H522; first compound 8 µM,0.562
same,relative viability,NCI-H2342; first compound 0.08 µM,0.505
same,relative viability,NCI-H2342; first compound 0.253 µM,0.495
same,relative viability,NCI-H2342; first compound 0.8 µM,0.472
same,relative viability,NCI-H2342; first compound 2.53 µM,0.532
same,relative viability,NCI-H2342; first compound 8 µM,0.466
same,relative viability,NCI-H1734; first compound 0.08 µM,0.271
same,relative viability,NCI-H1734; first compound 0.253 µM,0.261
same,relative viability,NCI-H1734; first compound 0.8 µM,0.265
same,relative viability,NCI-H1734; first compound 8 µM,0.26
same,relative viability,NCI-H647; first compound 0.08 µM,0.325
same,relative viability,NCI-H647; first compound 0.253 µM,0.0459
same,relative viability,NCI-H647; first compound 0.8 µM,0.224
same,relative viability,NCI-H647; first compound 2.53 µM,0.171
same,relative viability,NCI-H647; first compound 8 µM,0.462
same,relative viability,NCI-H358; first compound 0.08 µM,0.0969
same,relative viability,NCI-H358; first compound 0.253 µM,0.101
same,relative viability,NCI-H358; first compound 0.8 µM,0.12
same,relative viability,NCI-H358; first compound 2.53 µM,0.0965
same,relative viability,NCI-H358; first compound 8 µM,0.111
same,relative viability,PC-3 [JPC-3]; first compound 0.08 µM,0.861
same,relative viability,PC-3 [JPC-3]; first compound 0.253 µM,0.871
same,relative viability,PC-3 [JPC-3]; first compound 0.8 µM,0.827
same,relative viability,PC-3 [JPC-3]; first compound 2.53 µM,0.805
same,relative viability,PC-3 [JPC-3]; first compound 8 µM,0.714
same,relative viability,NCI-H2126; first compound 0.08 µM,0.825
same,relative viability,NCI-H2126; first compound 0.253 µM,0.875
same,relative viability,NCI-H2126; first compound 0.8 µM,0.824
same,relative viability,NCI-H2126; first compound 2.53 µM,0.781
same,relative viability,NCI-H2126; first compound 8 µM,0.788
